Source: publication PMC7827406, “Structure–Activity Relationship (SAR) Study of Spautin-1 to Entail the Discovery of Novel NEK4 Inhibitors” (International Journal of Molecular Sciences, 2021)
Where two headings read alike, the source gives them in different places.

Key:
Test in all cases: biochemical
Set-up in all cases: Eurofins KinaseProfiler full panel at Km ATP, residual kinase activity (%) relative to DMSO
[1] = molecular target: EGFR(L858R)(h) (Homo sapiens, UniProt P00533, L858R)
Outline: (§1)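 Compounds screened at 10 µM in radiometric kinase activity assays at Km ATP, reported as remaining kinase activity (%). A KINOMEscan competition-binding screen at 10 µM measured DNA-tagged kinase retained on immobilized active-site ligand by qPCR.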

[2] = molecular target: T1, PKCδ(h) (Homo sapiens, UniProt Q05655)
T1 construct: gene PRKCD
Outline: as §1

[3] = molecular target: T2, Rsk1(r) (Rattus norvegicus, UniProt Q63531)
T2 construct: gene Rps6ka1
Outline: as §1

[4] = molecular target: LIMK2(h) (Homo sapiens, UniProt P53671)
LIMK2(h), sequence (P53671 whole entry): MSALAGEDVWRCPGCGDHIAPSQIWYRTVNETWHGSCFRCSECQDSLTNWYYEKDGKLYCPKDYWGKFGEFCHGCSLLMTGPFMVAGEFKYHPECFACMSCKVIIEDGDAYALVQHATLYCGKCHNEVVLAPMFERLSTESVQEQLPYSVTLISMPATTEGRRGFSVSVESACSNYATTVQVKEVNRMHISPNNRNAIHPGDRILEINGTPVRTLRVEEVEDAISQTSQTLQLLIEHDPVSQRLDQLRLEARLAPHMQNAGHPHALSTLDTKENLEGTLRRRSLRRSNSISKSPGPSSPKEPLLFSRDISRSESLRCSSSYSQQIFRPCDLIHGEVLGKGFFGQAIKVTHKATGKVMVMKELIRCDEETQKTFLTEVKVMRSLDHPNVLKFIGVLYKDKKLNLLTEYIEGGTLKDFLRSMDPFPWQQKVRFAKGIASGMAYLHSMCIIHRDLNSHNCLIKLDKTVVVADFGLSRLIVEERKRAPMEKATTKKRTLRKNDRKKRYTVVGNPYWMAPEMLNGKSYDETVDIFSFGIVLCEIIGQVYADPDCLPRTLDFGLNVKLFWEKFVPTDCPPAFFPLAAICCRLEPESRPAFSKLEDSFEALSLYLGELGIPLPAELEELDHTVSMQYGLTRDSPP
Outline: as §1

[5] = molecular target: CDK13/cyclinK(h) (Homo sapiens, UniProt Q14004)
Outline: as §1

[6] = molecular target: T3, PEK(h) (Homo sapiens, UniProt Q9NZJ5)
T3 construct: gene EIF2AK3
T3 sequence (Q9NZJ5 1-1116): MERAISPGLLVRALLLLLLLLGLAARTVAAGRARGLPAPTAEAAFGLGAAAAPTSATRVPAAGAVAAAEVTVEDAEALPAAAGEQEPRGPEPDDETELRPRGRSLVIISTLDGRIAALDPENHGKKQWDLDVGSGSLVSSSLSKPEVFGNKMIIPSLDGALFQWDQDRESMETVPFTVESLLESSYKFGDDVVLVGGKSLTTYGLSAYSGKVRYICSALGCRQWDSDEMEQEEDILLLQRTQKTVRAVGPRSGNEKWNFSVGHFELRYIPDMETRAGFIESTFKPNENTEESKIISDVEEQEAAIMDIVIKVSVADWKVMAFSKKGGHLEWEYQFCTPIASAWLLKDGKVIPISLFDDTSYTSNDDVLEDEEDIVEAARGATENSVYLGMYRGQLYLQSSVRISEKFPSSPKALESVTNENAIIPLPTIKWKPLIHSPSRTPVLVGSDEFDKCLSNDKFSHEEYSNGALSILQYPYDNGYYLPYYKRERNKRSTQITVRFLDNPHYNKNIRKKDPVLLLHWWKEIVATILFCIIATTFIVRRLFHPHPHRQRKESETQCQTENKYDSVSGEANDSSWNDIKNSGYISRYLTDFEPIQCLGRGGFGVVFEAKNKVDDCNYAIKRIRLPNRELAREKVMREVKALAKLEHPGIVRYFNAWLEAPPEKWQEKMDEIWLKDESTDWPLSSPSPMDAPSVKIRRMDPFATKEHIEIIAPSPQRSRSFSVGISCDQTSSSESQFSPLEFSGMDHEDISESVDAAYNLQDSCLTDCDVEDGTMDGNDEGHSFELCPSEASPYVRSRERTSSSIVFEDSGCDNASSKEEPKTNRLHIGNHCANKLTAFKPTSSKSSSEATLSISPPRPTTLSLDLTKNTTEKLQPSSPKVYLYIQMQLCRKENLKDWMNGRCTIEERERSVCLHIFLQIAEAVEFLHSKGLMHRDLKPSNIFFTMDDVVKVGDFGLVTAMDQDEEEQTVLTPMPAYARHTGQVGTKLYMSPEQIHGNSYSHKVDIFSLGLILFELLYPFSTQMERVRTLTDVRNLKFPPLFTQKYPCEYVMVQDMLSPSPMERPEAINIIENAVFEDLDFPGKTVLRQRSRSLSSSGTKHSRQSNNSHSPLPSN
Outline: as §1

[7] = molecular target: CDK4/cyclinD3(h) (Homo sapiens, UniProt P11802)
CDK4/cyclinD3(h), sequence (P11802 whole entry): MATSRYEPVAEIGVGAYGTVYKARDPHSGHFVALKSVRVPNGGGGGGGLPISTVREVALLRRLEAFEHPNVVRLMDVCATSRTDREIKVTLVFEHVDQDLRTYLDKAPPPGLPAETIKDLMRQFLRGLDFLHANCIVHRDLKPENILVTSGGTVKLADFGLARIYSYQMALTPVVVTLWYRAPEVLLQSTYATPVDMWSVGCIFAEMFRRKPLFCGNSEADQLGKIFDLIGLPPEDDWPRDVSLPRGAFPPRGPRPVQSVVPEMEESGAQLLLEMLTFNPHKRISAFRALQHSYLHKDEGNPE
CDK4/cyclinD3(h), sequence (P30281 whole entry partner): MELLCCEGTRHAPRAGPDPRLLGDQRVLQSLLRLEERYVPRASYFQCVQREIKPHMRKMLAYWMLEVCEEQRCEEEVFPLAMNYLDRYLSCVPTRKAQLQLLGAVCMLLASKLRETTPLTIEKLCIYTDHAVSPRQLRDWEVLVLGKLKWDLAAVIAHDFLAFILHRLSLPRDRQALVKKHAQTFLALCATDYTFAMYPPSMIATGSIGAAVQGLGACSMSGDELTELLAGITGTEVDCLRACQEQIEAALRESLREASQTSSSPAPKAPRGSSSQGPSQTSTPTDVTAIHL
Outline: as §1

[8] = molecular target: PIP5K1a(h) (Homo sapiens, UniProt Q99755)
Outline: as §1

[9] = molecular target: WNK2(h) (Homo sapiens, UniProt Q9Y3S1)
WNK2(h), sequence (Q9Y3S1 whole entry): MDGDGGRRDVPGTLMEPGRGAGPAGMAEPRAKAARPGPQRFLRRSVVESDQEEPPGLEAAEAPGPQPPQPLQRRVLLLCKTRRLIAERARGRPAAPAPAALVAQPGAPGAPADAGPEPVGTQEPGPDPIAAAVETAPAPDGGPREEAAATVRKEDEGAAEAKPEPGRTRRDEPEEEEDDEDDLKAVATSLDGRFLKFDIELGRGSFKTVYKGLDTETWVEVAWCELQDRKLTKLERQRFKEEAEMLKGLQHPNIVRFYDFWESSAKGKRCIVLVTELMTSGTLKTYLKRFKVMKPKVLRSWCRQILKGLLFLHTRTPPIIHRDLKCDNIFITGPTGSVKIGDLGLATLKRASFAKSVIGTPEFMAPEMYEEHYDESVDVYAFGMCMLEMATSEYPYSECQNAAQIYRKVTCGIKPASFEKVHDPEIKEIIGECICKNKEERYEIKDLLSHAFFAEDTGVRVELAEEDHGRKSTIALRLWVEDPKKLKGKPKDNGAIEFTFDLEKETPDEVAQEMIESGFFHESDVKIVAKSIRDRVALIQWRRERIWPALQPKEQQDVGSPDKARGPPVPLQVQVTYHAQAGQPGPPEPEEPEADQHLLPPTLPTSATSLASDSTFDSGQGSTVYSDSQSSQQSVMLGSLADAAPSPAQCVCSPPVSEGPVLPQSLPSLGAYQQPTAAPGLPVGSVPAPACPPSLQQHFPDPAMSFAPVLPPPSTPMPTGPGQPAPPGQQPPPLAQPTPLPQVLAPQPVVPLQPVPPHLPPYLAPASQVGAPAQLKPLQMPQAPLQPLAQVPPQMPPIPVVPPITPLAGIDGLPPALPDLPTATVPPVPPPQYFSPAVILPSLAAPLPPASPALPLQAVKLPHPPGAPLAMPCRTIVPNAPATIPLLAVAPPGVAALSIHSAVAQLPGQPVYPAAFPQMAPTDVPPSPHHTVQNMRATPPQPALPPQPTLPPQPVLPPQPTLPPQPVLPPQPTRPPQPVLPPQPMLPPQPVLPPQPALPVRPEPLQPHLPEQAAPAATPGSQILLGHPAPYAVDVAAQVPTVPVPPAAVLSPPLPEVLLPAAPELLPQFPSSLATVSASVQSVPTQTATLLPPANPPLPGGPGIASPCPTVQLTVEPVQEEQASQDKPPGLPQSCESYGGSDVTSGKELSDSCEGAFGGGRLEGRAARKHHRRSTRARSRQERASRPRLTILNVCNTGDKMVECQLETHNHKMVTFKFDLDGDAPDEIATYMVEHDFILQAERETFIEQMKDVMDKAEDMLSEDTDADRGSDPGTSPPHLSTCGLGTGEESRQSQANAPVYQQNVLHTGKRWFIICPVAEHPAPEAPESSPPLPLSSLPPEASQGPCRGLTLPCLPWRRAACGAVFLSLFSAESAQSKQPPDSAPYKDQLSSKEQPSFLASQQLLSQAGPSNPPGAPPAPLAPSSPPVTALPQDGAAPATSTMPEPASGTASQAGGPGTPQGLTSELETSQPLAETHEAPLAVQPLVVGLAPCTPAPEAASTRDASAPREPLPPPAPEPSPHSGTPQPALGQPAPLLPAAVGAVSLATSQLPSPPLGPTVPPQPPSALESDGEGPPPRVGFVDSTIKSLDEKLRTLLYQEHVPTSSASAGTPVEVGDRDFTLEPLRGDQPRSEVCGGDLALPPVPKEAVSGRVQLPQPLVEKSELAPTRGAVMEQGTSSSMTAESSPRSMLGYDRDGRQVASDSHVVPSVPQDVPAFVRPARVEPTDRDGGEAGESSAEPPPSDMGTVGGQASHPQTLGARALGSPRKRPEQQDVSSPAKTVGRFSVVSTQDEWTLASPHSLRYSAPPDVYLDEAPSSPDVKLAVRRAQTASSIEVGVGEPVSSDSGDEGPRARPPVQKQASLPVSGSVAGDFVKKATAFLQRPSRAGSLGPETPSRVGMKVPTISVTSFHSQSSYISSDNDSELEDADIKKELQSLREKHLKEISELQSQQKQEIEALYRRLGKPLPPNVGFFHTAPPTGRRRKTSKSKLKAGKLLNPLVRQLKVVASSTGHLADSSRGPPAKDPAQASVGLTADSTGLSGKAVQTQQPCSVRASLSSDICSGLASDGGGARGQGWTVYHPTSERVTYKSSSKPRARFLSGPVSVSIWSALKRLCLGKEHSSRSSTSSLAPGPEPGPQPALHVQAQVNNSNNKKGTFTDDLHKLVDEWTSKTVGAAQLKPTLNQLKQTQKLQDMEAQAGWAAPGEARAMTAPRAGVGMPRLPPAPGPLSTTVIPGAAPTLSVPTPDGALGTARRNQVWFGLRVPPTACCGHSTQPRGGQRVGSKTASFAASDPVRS
Outline: as §1

[10] = molecular target: STK32A(h) (Homo sapiens, UniProt Q8WU08)
Outline: as §1

[11] = molecular target: T4, Src(1-530)(h) (Homo sapiens, UniProt P12931)
T4 construct: residues 1-530
Outline: as §1

[12] = molecular target: T5, MRCKγ(h) (Homo sapiens, UniProt Q6DT37)
T5 construct: gene CDC42BPG
T5 sequence (Q6DT37 whole entry): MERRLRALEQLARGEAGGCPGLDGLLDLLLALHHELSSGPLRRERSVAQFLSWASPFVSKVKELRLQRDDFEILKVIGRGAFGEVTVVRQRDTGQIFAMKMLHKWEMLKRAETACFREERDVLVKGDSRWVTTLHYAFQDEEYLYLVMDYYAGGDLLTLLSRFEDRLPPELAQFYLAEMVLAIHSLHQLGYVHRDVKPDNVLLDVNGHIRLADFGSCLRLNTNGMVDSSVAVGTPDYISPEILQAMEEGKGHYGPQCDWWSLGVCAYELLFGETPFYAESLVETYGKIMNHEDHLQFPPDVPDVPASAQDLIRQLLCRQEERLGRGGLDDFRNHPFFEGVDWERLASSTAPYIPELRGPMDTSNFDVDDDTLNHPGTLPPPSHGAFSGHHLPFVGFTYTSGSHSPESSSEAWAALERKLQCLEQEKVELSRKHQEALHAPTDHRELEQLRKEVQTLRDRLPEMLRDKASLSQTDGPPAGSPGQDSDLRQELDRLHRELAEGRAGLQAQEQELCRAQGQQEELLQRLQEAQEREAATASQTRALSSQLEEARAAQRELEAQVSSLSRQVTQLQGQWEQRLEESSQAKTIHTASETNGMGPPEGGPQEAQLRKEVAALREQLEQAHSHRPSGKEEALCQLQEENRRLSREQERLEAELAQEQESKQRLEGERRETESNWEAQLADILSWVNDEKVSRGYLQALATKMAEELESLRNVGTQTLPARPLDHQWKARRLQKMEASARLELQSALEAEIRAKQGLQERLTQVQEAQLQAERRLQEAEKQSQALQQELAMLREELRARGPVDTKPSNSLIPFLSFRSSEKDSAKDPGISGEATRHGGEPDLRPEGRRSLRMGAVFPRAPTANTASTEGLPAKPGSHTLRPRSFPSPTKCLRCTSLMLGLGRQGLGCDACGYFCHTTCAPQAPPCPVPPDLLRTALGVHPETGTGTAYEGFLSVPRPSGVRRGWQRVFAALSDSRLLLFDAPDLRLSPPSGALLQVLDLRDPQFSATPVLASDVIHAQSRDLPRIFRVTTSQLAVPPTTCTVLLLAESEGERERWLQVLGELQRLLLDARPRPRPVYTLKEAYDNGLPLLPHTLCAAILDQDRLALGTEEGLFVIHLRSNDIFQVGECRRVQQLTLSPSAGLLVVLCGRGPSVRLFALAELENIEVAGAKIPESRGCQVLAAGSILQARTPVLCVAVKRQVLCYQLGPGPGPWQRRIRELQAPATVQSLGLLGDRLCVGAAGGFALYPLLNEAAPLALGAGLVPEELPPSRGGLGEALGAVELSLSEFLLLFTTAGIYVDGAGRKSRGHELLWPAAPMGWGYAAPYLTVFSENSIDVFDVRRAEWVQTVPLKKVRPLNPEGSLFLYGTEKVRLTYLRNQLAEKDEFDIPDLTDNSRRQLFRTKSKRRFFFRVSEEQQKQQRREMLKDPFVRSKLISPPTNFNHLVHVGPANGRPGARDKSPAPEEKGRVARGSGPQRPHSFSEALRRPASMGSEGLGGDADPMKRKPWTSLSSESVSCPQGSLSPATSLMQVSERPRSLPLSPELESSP
Outline: as §1

[13] = read-out: Residual activity (%) 5ay
[14] = read-out: Residual activity (%) Spautin-1 5aa
[15] = read-out: Residual activity (%) 5at
[16] = read-out: Residual activity (%) 5as

`COc1ccc2ncnc(Nc3cccc(F)c3)c2c1` [5ay, N-(3-Fluorophenyl)-6-Methoxy-4-Quinazolinamine] showed a remaining activity at 10 µM [1, 13] of 3%, a remaining activity at 10 µM [2, 13] of 75% and a remaining activity at 10 µM [3, 13] of 129%. For the same compound, the remaining activity at 10 µM [4, 13] was 103%, the remaining activity at 10 µM [5, 13] was 105% and the remaining activity at 10 µM [6, 13] was 108%. The remaining activity at 10 µM [7, 13] was 100%, the remaining activity at 10 µM [8, 13] was 101% and the remaining activity at 10 µM [9, 13] was 71%. It also gave a remaining activity at 10 µM [10, 13] of 103%, a remaining activity at 10 µM [11, 13] of 90% and a remaining activity at 10 µM [12, 13] of 92%.

`Fc1ccc(CNc2ncnc3ccc(F)cc23)cc1` [5aa, 6-Fluoro-N-(4-fluorobenzyl)-4-Quinazolinamine] gave a remaining activity at 10 µM [1, 14] of 23%, a remaining activity at 10 µM [2, 14] of 81% and a remaining activity at 10 µM [3, 14] of 117%. The remaining activity at 10 µM [4, 14] was 94%, the remaining activity at 10 µM [5, 14] was 75% and the remaining activity at 10 µM [6, 14] was 105%. For the same compound, the remaining activity at 10 µM [7, 14] was 101%, the remaining activity at 10 µM [8, 14] was 104% and the remaining activity at 10 µM [9, 14] was 77%. The remaining activity at 10 µM [10, 14] was 95%, the remaining activity at 10 µM [11, 14] was 107% and the remaining activity at 10 µM [12, 14] was 105%.

For `Fc1ccc2ncnc(NCCc3ccc(Cl)cc3)c2c1` [5at, N-[2-(4-Chlorophenyl)Ethyl]-6-Fluoro-4-Quinazolinamine], the remaining activity at 10 µM [1, 15] was 60%, the remaining activity at 10 µM [2, 15] was 88% and the remaining activity at 10 µM [3, 15] was 113%. For the same compound, the remaining activity at 10 µM [4, 15] was 84%, the remaining activity at 10 µM [5, 15] was 114% and the remaining activity at 10 µM [6, 15] was 110%. It also gave a remaining activity at 10 µM [7, 15] of 95%, a remaining activity at 10 µM [8, 15] of 104% and a remaining activity at 10 µM [9, 15] of 76%. For the same compound, the remaining activity at 10 µM [10, 15] was 100%, the remaining activity at 10 µM [11, 15] was 81% and the remaining activity at 10 µM [12, 15] was 102%.

Work on `Fc1ccc(CCNc2ncnc3ccc(F)cc23)cc1` [5as, 6-Fluoro-N-[2-(4-Fluorophenyl)Ethyl]-4-Quinazolinamine] yielded a remaining activity at 10 µM [1, 16] of 37%, a remaining activity at 10 µM [2, 16] of 97% and a remaining activity at 10 µM [3, 16] of 130%. It also gave a remaining activity at 10 µM [4, 16] of 87%, a remaining activity at 10 µM [5, 16] of 35% and a remaining activity at 10 µM [6, 16] of 112%. It also gave a remaining activity at 10 µM [7, 16] of 97%, a remaining activity at 10 µM [8, 16] of 103% and a remaining activity at 10 µM [9, 16] of 74%. It also gave a remaining activity at 10 µM [10, 16] of 99%, a remaining activity at 10 µM [11, 16] of 101% and a remaining activity at 10 µM [12, 16] of 98%.
